Consider 16 molecules from US10047098B2, “C5-C6-oxacyclic fused iminopyrimidinone compounds as bace inhibitors, compositions, and their use” (Merck Sharp & Dohme Corp., priority 2014, dated 2018).

The term Ki denotes a measure of affinity in units of concentration, obtained from inhibition or displacement.

Test [1] concerns the target Recombinant human soluble BACE1 catalytic domain (Homo sapiens (Human), UniProt P56817). The test can be described thus: BACE1 HTRF FRET Assay. Type of test: biochemical. To be noted: Ki calculated from IC50 using the Cheng-Prusoff equation; QSY7-APPswe-Eu substrate, pH 5.0; read-out: BACE-1 Ki. The method in brief:
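Purified BACE1 catalytic domain (3 nM as added) is preincubated with inhibitor for 30 min at 30 °C in 20 mM Na-acetate pH 5.0, 10% glycerol, 0.1% Brij-35, 7.5% DMSO. QSY7-APP^swe-Eu substrate (200 nM final) is then cleaved for 1.5 h at 30 °C and read as time-resolved 620 nm fluorescence. IC50s come from nonlinear regression, and Ki from Cheng-Prusoff using substrate Km 8 μM.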

Test [2] has as its target purified human autoBACE-2 (Homo sapiens (Human), UniProt Q9Y5Z0). The test can be described thus: BACE-2 Assay (BACE-HTRF assay). Type of test: biochemical. The following applies: Ki calculated from IC50 using the Cheng-Prusoff equation; QSY7-EISEVNLDAEFC-Eu-amide substrate, pH 5.0. The method in brief:
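Endpoint proteolysis of a QSY7/europium FRET peptide by purified human autoBACE-2, 5% DMSO final, read by time-resolved fluorescence at 620 nm after 320 nm excitation.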

Sequence of purified human autoBACE-2 (Q9Y5Z0 63-473 limits assumed): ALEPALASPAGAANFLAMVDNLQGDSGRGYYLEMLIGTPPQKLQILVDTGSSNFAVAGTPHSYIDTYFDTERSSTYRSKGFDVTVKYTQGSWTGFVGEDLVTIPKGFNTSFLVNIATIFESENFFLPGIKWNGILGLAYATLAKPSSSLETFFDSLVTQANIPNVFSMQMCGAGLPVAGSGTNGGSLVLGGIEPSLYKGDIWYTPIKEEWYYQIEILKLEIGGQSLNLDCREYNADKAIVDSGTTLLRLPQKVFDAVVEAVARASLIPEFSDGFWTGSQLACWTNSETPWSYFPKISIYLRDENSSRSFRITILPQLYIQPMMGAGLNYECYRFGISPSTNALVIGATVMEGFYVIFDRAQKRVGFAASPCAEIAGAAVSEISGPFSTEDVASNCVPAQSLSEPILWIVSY
Sequence of Recombinant human soluble BACE1 catalytic domain (P56817 75-416): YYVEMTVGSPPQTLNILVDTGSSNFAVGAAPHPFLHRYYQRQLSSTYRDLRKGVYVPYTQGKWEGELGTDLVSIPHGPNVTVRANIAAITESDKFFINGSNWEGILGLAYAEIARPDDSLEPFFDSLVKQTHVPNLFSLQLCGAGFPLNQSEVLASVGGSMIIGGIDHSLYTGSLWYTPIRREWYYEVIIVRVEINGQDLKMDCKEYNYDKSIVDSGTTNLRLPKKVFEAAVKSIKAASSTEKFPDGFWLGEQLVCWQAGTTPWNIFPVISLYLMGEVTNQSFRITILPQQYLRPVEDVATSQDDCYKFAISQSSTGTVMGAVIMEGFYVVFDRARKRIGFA

For `C[C@H]1C[C@H]2C(=O)N(C)C(=N)N[C@@]2(c2cc(Oc3cc(F)ccc3F)ccc2F)CO1` [Example 82, (4aR,6S,8aS)-8a-(5-(2,5-difluorophenoxy)-2-fluorophenyl)-2-imino-3,6-dimethylhexahydro-1H-pyrano[3,4-d]pyrimidin-4(4aH)-one], the Ki in test [1] is 45.7 nM; in test [2] it was 23.5 nM.
As to `CN1C(=N)N[C@@]2(c3cc(Br)ccc3F)CO[C@@H](c3ccc(F)cc3)C[C@H]2C1=O` [Example 83, (4aR,6R,8aS)-8a-(5-bromo-2-fluorophenyl)-6-(4-fluorophenyl)-2-imino-3-methylhexahydro-1H-pyrano[3,4-d]pyrimidin-4(4aH)-one], the Ki in test [1] is 60.5 nM; in test [2] it was 24.2 nM.
As to `CN1C(=N)N[C@@]2(c3cc(O)ccc3F)CO[C@@H](c3ccc(F)cc3)C[C@H]2C1=O` [Example 84, (4aR,6R,8aS)-8a-(2-fluoro-5-hydroxyphenyl)-6-(4-fluorophenyl)-2-imino-3-methylhexahydro-1H-pyrano[3,4-d]pyrimidin-4(4aH)-one], the Ki in test [1] was 70 nM; in test [2] it was 17.2 nM.
As to `CN1C(=N)N[C@@]2(c3cc(OCC4CC4)ccc3F)CO[C@@H](c3ccc(F)cc3)C[C@H]2C1=O` [Example 85, (4aR,6R,8aS)-8a-(5-(cyclopropylmethoxy)-2-fluorophenyl)-6-(4-fluorophenyl)-2-imino-3-methylhexahydro-1H-pyrano[3,4-d]pyrimidin-4(4aH)-one], the Ki in test [1] was 3.2 nM; in test [2], 0.76 nM.
Take `CN1C(=N)N[C@@]2(c3cc(Br)ccc3F)COCC[C@H]2C1=O` [Example 86, (4aR,8aS)-8a-(5-bromo-2-fluorophenyl)-2-imino-3-methylhexahydro-IH-pyrano[3,4-d]pyrimidin-4(4aH)-one]: the results for the Ki in test [1] and in test [2] were 1200 nM and 298 nM, respectively.
For `CN1C(=N)N[C@@]2(c3cc(Oc4ncccc4F)ccc3F)COCC[C@H]2C1=O` [Example 87, (4aR,8aS)-8a-(2-fluoro-5-((3-fluoropyridin-2-yl)oxy)phenyl)-2-imino-3-methylhexahydro-1H-pyrano[3,4-d]pyrimidin-4(4aH)-one], the Ki is 27 nM in test [1] and 13.5 nM in test [2].
Regarding `CN1C(=N)N[C@@]2(c3cc(OCC4CC4)ccc3F)COCC[C@H]2C1=O` [Example 88, (4aR,8aS)-8a-(5-(cyclopropylmethoxy)-2-fluorophenyl)-2-imino-3-methylhexahydro-1H-pyrano[3,4-d]pyrimidin-4(4aH)-one], the Ki in test [1] was 44 nM; in test [2], 5.96 nM.
For the molecule `COC[C@H]1C[C@H]2C(=O)N(C)C(=N)N[C@@]2(c2cc(Br)ccc2F)CO1` [Example 89, (4aR,6R,8aS)-8a-(5-bromo-2-fluorophenyl)-2-imino-6-(methoxymethyl)-3-methylhexahydro-1H-pyrano[3,4-d]pyrimidin-4(4aH)-one], the values for the inhibition constant (Ki) in test [1] and in test [2] were 910 nM and 304 nM, respectively.
In the case of `COC[C@H]1C[C@H]2C(=O)N(C)C(=N)N[C@@]2(c2cc(OCC3CC3)ccc2F)CO1` [Example 90, (4aR,6R,8aS)-8a-(5-(cyclopropylmethoxy)-2-fluorophenyl)-2-imino-6-(methoxymethyl)-3-methylhexahydro-1H-pyrano[3,4-d]pyrimidin-4(4aH)-one], the Ki is 21 nM in test [1] and 8.84 nM in test [2].
For `COc1cc([C@]23CO[C@@H](C)C[C@H]2C(=O)N(C)C(=N)N3)c(F)cn1` [Example 91, (4aR,6S,8aS)-8a-(5-fluoro-2-methoxypyridin-4-yl)-2-imino-3,6-dimethylhexahydro-1H-pyrano[3,4-d]pyrimidin-4(4aH)-one], the Ki in test [1] was 468 nM; in test [2], 155 nM.
For `C[C@H]1C[C@H]2C(=O)N(C)C(=N)N[C@@]2(c2cc(OCC3CC3)ncc2F)CO1` [Example 92, (4aR,6S,8aS)-8a-(2-(cyclopropylmethoxy)-5-fluoropyridin-4-yl)-2-imino-3,6-dimethylhexahydro-1H-pyrano[3,4-d]pyrimidin-4(4aH)-one], in that order: 11.1 nM and 2.19 nM.
The corresponding values for `C=CCCOc1cc([C@]23CO[C@@H](C)C[C@H]2C(=O)N(C)C(=N)N3)c(F)cn1` [Example 93, (4aR,6S,8aS)-8a-(2-(but-3-en-1-yloxy)-5-fluoropyridin-4-yl)-2-imino-3,6-dimethylhexahydro-1H-pyrano[3,4-d]pyrimidin-4(4aH)-one] are 16.1 nM and 4.46 nM.
Turning to `C[C@H]1C[C@H]2C(=O)N(C)C(=N)N[C@@]2(c2cc(=O)n(CC3CC3)cc2F)CO1` [Example 94, (4aR,6S,8aS)-8a-(1-(cyclopropylmethyl)-5-fluoro-2-oxo-1,2-dihydropyridin-4-yl)-2-imino-3,6-dimethylhexahydro-1H-pyrano[3,4-d]pyrimidin-4(4aH)-one], the figures for the Ki in test [1] and in test [2] were 4180 nM and 1590 nM, respectively.
The corresponding values for `C=CCCn1cc(F)c([C@]23CO[C@@H](C)C[C@H]2C(=O)N(C)C(=N)N3)cc1=O` [Example 95, (4aR,6S,8aS)-8a-(1-(but-3-en-1-yl)-5-fluoro-2-oxo-1,2-dihydropyridin-4-yl)-2-imino-3,6-dimethylhexahydro-1H-pyrano[3,4-d]pyrimidin-4(4aH)-one] are 8400 nM and 1590 nM.
As for `C[C@H]1C[C@H]2C(=O)N(C)C(=N)N[C@@]2(c2cc(Oc3ncccc3F)ncc2F)CO1` [Example 96], the values for the Ki in test [1] and in test [2] were 145 nM and 31.3 nM, respectively.
Regarding “(4aR,6S,8aS)-8a-(5-((4-chloropyridin-3-yl)oxy)-2-fluorophenyl)-2-imino-3,6-dimethylhexahydro-1H-pyrano[3,4-d]pyrimidin-4(4aH)-one [Example 75]”, the Ki in test [1] was 58.2 nM; in test [2], 23.3 nM.
